≈ marks a conversion by molar mass, not a printed value.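 Results reflect a 48-hour exposure of cells in 96-well plates to compound at five concentrations. Here, GI50 denotes the concentration required for 50% inhibition of growth. TGI: total growth inhibition.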
Columns and labels:
Test in all cases: growth of human tumour cells (NCI), 48 h
ACHN renal = system: ACHN renal
CCRF-CEM leukemia = system: CCRF-CEM leukemia
HCC-2998 colon = system: HCC-2998 colon
OVCAR-5 ovarian = system: OVCAR-5 ovarian
OVCAR-8 ovarian = system: OVCAR-8 ovarian
RXF 393 renal = system: RXF 393 renal
SK-MEL-2 melanoma = system: SK-MEL-2 melanoma
SK-MEL-28 melanoma = system: SK-MEL-28 melanoma
SK-MEL-5 melanoma = system: SK-MEL-5 melanoma
SN12C renal = system: SN12C renal
SNB-19 CNS = system: SNB-19 CNS
SW-620 colon = system: SW-620 colon
UO-31 renal = system: UO-31 renal

ICC1CCCO1 (centres undefined)
TGI (ACHN renal): > 100 µM
TGI (CCRF-CEM leukemia): > 100 µM
TGI (HCC-2998 colon): > 100 µM
TGI (OVCAR-5 ovarian): > 100 µM
TGI (OVCAR-8 ovarian): > 100 µM
TGI (RXF 393 renal): > 100 µM
TGI (SK-MEL-2 melanoma): > 100 µM
TGI (SK-MEL-28 melanoma): > 100 µM
TGI (SK-MEL-5 melanoma): > 100 µM
TGI (SN12C renal): > 100 µM
TGI (SNB-19 CNS): > 100 µM
TGI (SW-620 colon): > 100 µM

O=C=C=P(c1ccccc1)(c1ccccc1)c1ccccc1
TGI (ACHN renal): > 100 µM
TGI (CCRF-CEM leukemia): > 100 µM
TGI (HCC-2998 colon): > 100 µM
TGI (OVCAR-5 ovarian): 92.8 µM
TGI (OVCAR-8 ovarian): > 100 µM
TGI (RXF 393 renal): > 100 µM
TGI (SK-MEL-2 melanoma): > 100 µM
TGI (SK-MEL-28 melanoma): > 100 µM
TGI (SK-MEL-5 melanoma): 46.2 µM
TGI (SN12C renal): > 100 µM
TGI (SNB-19 CNS): > 100 µM
TGI (SW-620 colon): > 100 µM
TGI (UO-31 renal): > 100 µM

CCOP(=O)(C/C=C/Cn1ncc(=O)[nH]c1=O)OCC
TGI (ACHN renal): > 100 µM
TGI (CCRF-CEM leukemia): > 100 µM
TGI (HCC-2998 colon): > 100 µM
TGI (OVCAR-5 ovarian): > 100 µM
TGI (OVCAR-8 ovarian): > 100 µM
TGI (RXF 393 renal): > 100 µM
TGI (SK-MEL-2 melanoma): > 100 µM
TGI (SK-MEL-28 melanoma): > 100 µM
TGI (SK-MEL-5 melanoma): > 100 µM
TGI (SN12C renal): > 100 µM
TGI (SNB-19 CNS): > 100 µM
TGI (SW-620 colon): > 100 µM
TGI (UO-31 renal): > 100 µM

Cc1nc2nc(C)n(CCN3CCOCC3)c(=O)c2c(-c2cccc([N+](=O)[O-])c2)c1C(=O)CCCCCCCCCCN1CCC(c2ccccc2)(c2ccccc2)CC1
GI50 (HCC-2998 colon): 2.37 µg/mL (≈ 2.91 µM)
TGI (HCC-2998 colon): 4.56 µg/mL
GI50 (OVCAR-5 ovarian): 2.07 µg/mL (≈ 2.55 µM)
TGI (OVCAR-5 ovarian): 4.03 µg/mL
GI50 (SK-MEL-2 melanoma): 2.55 µg/mL (≈ 3.14 µM)
TGI (SK-MEL-2 melanoma): 4.76 µg/mL
GI50 (SK-MEL-28 melanoma): 2.26 µg/mL (≈ 2.78 µM)
TGI (SK-MEL-28 melanoma): 4.34 µg/mL
GI50 (SK-MEL-5 melanoma): 2.3 µg/mL (≈ 2.83 µM)
TGI (SK-MEL-5 melanoma): 4.3 µg/mL
GI50 (SNB-19 CNS): 2.28 µg/mL (≈ 2.8 µM)
TGI (SNB-19 CNS): 4.3 µg/mL
GI50 (UO-31 renal): 1.71 µg/mL (≈ 2.1 µM)
TGI (UO-31 renal): 3.52 µg/mL

CC1(C)OCC(CO)(CO)CO1
TGI (ACHN renal): > 100 µM
TGI (CCRF-CEM leukemia): > 100 µM
TGI (HCC-2998 colon): > 100 µM
TGI (OVCAR-8 ovarian): > 100 µM
TGI (RXF 393 renal): > 100 µM
TGI (SK-MEL-28 melanoma): > 100 µM
TGI (SK-MEL-5 melanoma): > 100 µM
TGI (SN12C renal): > 100 µM
TGI (SNB-19 CNS): > 100 µM
TGI (SW-620 colon): > 100 µM
TGI (UO-31 renal): > 100 µM

O=Cc1cn(CCCCCCCCn2cc(C=O)c3ccccc32)c2ccccc12
TGI (ACHN renal): > 10 µM
TGI (CCRF-CEM leukemia): > 10 µM
TGI (HCC-2998 colon): > 10 µM
TGI (OVCAR-5 ovarian): > 10 µM
TGI (OVCAR-8 ovarian): > 10 µM
TGI (RXF 393 renal): > 10 µM
TGI (SK-MEL-2 melanoma): > 10 µM
TGI (SK-MEL-28 melanoma): > 10 µM
TGI (SK-MEL-5 melanoma): > 10 µM
TGI (SN12C renal): > 10 µM
TGI (SNB-19 CNS): > 10 µM
TGI (SW-620 colon): > 10 µM
TGI (UO-31 renal): > 10 µM

c1ccc(C2=NN2c2ccccc2)cc1
TGI (ACHN renal): > 100 µM
TGI (CCRF-CEM leukemia): > 100 µM
TGI (HCC-2998 colon): > 100 µM
TGI (OVCAR-5 ovarian): > 100 µM
TGI (OVCAR-8 ovarian): > 100 µM
TGI (RXF 393 renal): > 100 µM
TGI (SK-MEL-2 melanoma): > 100 µM
TGI (SK-MEL-28 melanoma): > 100 µM
TGI (SK-MEL-5 melanoma): > 100 µM
TGI (SN12C renal): > 100 µM
TGI (SNB-19 CNS): > 100 µM
TGI (SW-620 colon): > 100 µM
TGI (UO-31 renal): > 100 µM

— PubChem BioAssay (NCI)
